# Values joined by “and” are separate entries in the source; they are usually repeats but may differ in a detail not shown here. Equal entries are not always repeated.
# Columns and labels:
# Staphylococcus aureus [1] = experiment: Inhibition of EtBr efflux in ciprofloxacin-resistant Staphylococcus aureus 1199B overexpressing norA and harboring A116E grlA mutant assessed as reduction in fluorescence intensity at 50 uM measured for 5 mins by microplate reader analysis relative to control; assay type: functional
# Staphylococcus aureus [2] = experiment: Inhibition of EtBr efflux in ciprofloxacin-resistant Staphylococcus aureus 1199B overexpressing norA and harboring A116E grlA mutant assessed as reduction in fluorescence intensity at 10 uM measured for 5 mins by microplate reader analysis relative to control; assay type: functional
# Staphylococcus aureus [3] = experiment: Antibacterial activity against ciprofloxacin-resistant Staphylococcus aureus 1199B overexpressing norA and harboring A116E grlA mutant assessed as inhibition of bacterial growth by broth microdilution method; assay type: functional
# Staphylococcus aureus [4] = experiment: Synergistic antibacterial activity against ciprofloxacin-resistant Staphylococcus aureus 1199B overexpressing norA and harboring A116E grlA mutant assessed as fold reduction in ciprofloxacin MIC at 6.25 uM by broth microdilution method; assay type: functional
# Staphylococcus aureus [5] = experiment: Antibacterial activity against ciprofloxacin-susceptible wild type Staphylococcus aureus 1199 assessed as inhibition of bacterial growth by broth microdilution method; assay type: functional
# Staphylococcus aureus [6] = experiment: Synergistic antibacterial activity against Staphylococcus aureus 1199B overexpressing norA and harboring A116E grlA mutant assessed as eight fold minimum potentiating concentration incubated in presence of ciprofloxacin by checkerboard assay; assay type: functional
# [7] = Cytotoxicity against human THP-1 cells assessed as cell viability at 3.13 ug/ml incubated for 24 hrs by MTT assay relative to control; assay type: toxicity, cell-based; conditions: at 3.13 µg/mL, read-out: Activity
# [8] = Cytotoxicity against human THP-1 cells assessed as cell viability at 12.5 ug/ml incubated for 24 hrs by MTT assay relative to control; assay type: toxicity, cell-based; conditions: at 12.5 µg/mL, read-out: Activity
# Staphylococcus aureus [9] = experiment: Antibacterial activity against Staphylococcus aureus K2378 harbouring norA promoting and coding region assessed as inhibition of bacterial growth by broth microdilution method; assay type: functional
# Staphylococcus aureus [10] = experiment: Antibacterial activity against norA deleted Staphylococcus aureus K1902 assessed as inhibition of bacterial growth by broth microdilution method; assay type: functional
# Staphylococcus aureus [11] = experiment: Synergistic antibacterial activity against Staphylococcus aureus K2378 overexpressing norA assessed as fold reduction in ciprofloxacin MIC at 0.2 to 12.5 ug/ml by checkerboard assay; assay type: functional; conditions: dose 0.2-12.5 µg/ml
# [12] = Cytotoxicity against human A549 cells assessed as cell viability at 12.5 ug/ml incubated for 24 hrs by MTT assay relative to control; assay type: toxicity, cell-based; conditions: at 12.5 µg/mL, read-out: Activity
# [13] = Cytotoxicity against human A549 cells assessed as cell viability at 3.13 ug/ml incubated for 24 hrs by MTT assay relative to control; assay type: toxicity, cell-based; conditions: at 3.13 µg/mL, read-out: Activity
# [14] = Cytotoxicity against human THP-1 cells assessed as cell viability incubated for 24 hrs by MTT assay; assay type: toxicity, cell-based
# Staphylococcus aureus [15] = experiment: Synergistic antibiofilm activity against Staphylococcus aureus 1199B overexpressing norA and harboring A116E grlA mutant assessed as biofilm eradication by measuring ciprofloxacin MBEC at 3.13 ug/ml incubated for 24 hrs by Calgary biofilm device assay; assay type: functional; conditions: dose 3.13 µg/ml
# Staphylococcus aureus [16] = experiment: Synergistic antibiofilm activity against wild type Staphylococcus aureus 1199 assessed as biofilm eradication by measuring ciprofloxacin MBEC at 3.13 ug/ml incubated for 24 hrs by Calgary biofilm device assay; assay type: functional; conditions: dose 3.13 µg/ml
# Staphylococcus aureus [17] = experiment: Synergistic antibiofilm activity against Staphylococcus aureus 1199B overexpressing norA and harboring A116E grlA mutant assessed as biofilm eradication by measuring fold reduction in ciprofloxacin MBEC at 3.13 ug/ml incubated for 24 hrs by Calgary biofilm device assay; assay type: functional; conditions: dose 3.13 µg/ml
# Staphylococcus aureus [18] = experiment: Synergistic antibiofilm activity against wild type Staphylococcus aureus 1199 assessed as biofilm eradication by measuring fold reduction in ciprofloxacin MBEC at 3.13 ug/ml incubated for 24 hrs by Calgary biofilm device assay; assay type: functional; conditions: dose 3.13 µg/ml
# Staphylococcus aureus [19] = experiment: Synergistic antibacterial activity against Staphylococcus aureus 1199B overexpressing norA and harboring A116E grlA mutant assessed as four fold minimum potentiating concentration incubated in presence of ciprofloxacin by checkerboard assay; assay type: functional
# Staphylococcus aureus [20] = experiment: Synergistic antibacterial activity against Staphylococcus aureus 1199B overexpressing norA and harboring A116E grlA mutant assessed as sixteen fold minimum potentiating concentration incubated in presence of ciprofloxacin by checkerboard assay; assay type: functional
# Staphylococcus aureus [21] = experiment: Synergistic antibacterial activity against wild type Staphylococcus aureus 1199 assessed as fold reduction in ciprofloxacin MIC at >=3.13 ug/ml by checkerboard assay; assay type: functional; conditions: dose >= 3.13 µg/ml
smiles,measurement,setting,value
CCCOc1ccc(-c2cc(OCCN(CC)CC)c3cc(C#N)ccc3n2)cc1,inhibition,Staphylococcus aureus [1],77.8%
CCCOc1ccc(-c2cc(OCCN3CCCCC3)c3cc(SC)ccc3n2)cc1,inhibition,Staphylococcus aureus [1],79.9%
same,inhibition,Staphylococcus aureus [2],80.2%
same,MIC,Staphylococcus aureus [3],> 50 µg/mL and 71.7 µM
same,fold change (FC),Staphylococcus aureus [4],>=8
same,MIC,Staphylococcus aureus [5],> 50 µg/mL
same,MPC,Staphylococcus aureus [6],6.25 µg/mL
CCCOc1ccc(-c2cc(OCCN(CC)CC)c3cc(OC(C)C)ccc3n2)cc1,inhibition,Staphylococcus aureus [1],43.7%
CCCOc1ccc(-c2cc(OCCN3CCCCC3)c3cc(OCCC)ccc3n2)cc1,inhibition,Staphylococcus aureus [1],73.9%
CCCOc1ccc(-c2cc(OCCN3CCCCCC3)c3cc(Oc4ccccc4)ccc3n2)cc1,inhibition,Staphylococcus aureus [1],83%
same,inhibition,Staphylococcus aureus [2],66.8%
same,MIC,Staphylococcus aureus [3],> 503 µM
CCCOc1ccc(-c2cc(OCCN3CCCCCC3)c3cc(OC(F)F)ccc3n2)cc1,inhibition,Staphylococcus aureus [1],70.7%
CCCOc1ccc(-c2cc(OCCN3CCCCCC3)c3cc(C(F)(F)F)ccc3n2)cc1,"viability at 24 h, 3.13 ug/ml",[7],65.4%
same,"viability at 24 h, 12.5 ug/ml",[8],27%
same,inhibition,Staphylococcus aureus [1],85.7%
same,inhibition,Staphylococcus aureus [2],65.6%
same,MIC,Staphylococcus aureus [3],> 50 µg/mL and > 529 µM
same,fold change (FC),Staphylococcus aureus [4],>=8
same,MIC,Staphylococcus aureus [5],> 50 µg/mL
same,MIC,Staphylococcus aureus [9],> 50 µg/mL
same,MIC,Staphylococcus aureus [10],> 50 µg/mL
same,MPC,Staphylococcus aureus [6],1.56 µg/mL
same,fold change (FC),Staphylococcus aureus [11],4
same,"viability at 24 h, 12.5 ug/ml",[12],77.1%
same,"viability at 24 h, 3.13 ug/ml",[13],100%
same,CC50 at 24 h,[14],> 3.13 µg/mL
same,MBEC,Staphylococcus aureus [15],0.63 µg/mL
same,MBEC,Staphylococcus aureus [16],0.07 µg/mL
same,fold change (FC),Staphylococcus aureus [17],512
same,fold change (FC),Staphylococcus aureus [18],286
CCCOc1ccc(-c2cc(OCCN3CCCCC3)c3cc(Oc4ccccc4)ccc3n2)cc1,"viability at 24 h, 3.13 ug/ml",[7],87.9%
same,"viability at 24 h, 12.5 ug/ml",[8],21.8%
same,inhibition,Staphylococcus aureus [1],84.1%
same,inhibition,Staphylococcus aureus [2],65.6%
same,MIC,Staphylococcus aureus [3],> 50 µg/mL and > 518 µM
same,fold change (FC),Staphylococcus aureus [4],8
same,MIC,Staphylococcus aureus [5],> 50 µg/mL
same,MIC,Staphylococcus aureus [9],> 50 µg/mL
same,MIC,Staphylococcus aureus [10],> 50 µg/mL
same,MPC,Staphylococcus aureus [6],1.56 µg/mL
same,fold change (FC),Staphylococcus aureus [11],4
same,"viability at 24 h, 12.5 ug/ml",[12],100%
same,"viability at 24 h, 3.13 ug/ml",[13],100%
same,CC50 at 24 h,[14],> 3.13 µg/mL
same,MBEC,Staphylococcus aureus [15],1.25 µg/mL
same,MBEC,Staphylococcus aureus [16],0.07 µg/mL
same,fold change (FC),Staphylococcus aureus [17],512
same,fold change (FC),Staphylococcus aureus [18],286
CCCOc1ccc(-c2cc(OCCN3CCCCC3)c3cc(OC(F)(F)F)ccc3n2)cc1,inhibition,Staphylococcus aureus [1],81.2%
same,inhibition,Staphylococcus aureus [2],86.9%
same,MIC,Staphylococcus aureus [3],> 529 µM
CCCOc1ccc(-c2cc(OCCN3CCCCCC3)c3cc(C#N)ccc3n2)cc1,inhibition,Staphylococcus aureus [1],84.2%
same,inhibition,Staphylococcus aureus [2],86.8%
same,MIC,Staphylococcus aureus [3],> 582 µM
CCCOc1ccc(-c2cc(OCCN(CC)CC)c3cc(Br)ccc3n2)cc1,inhibition,Staphylococcus aureus [1],63.4%
CCCOc1ccc(-c2cc(OCCN3CCCCC3)c3cc(Nc4ccccc4)ccc3n2)cc1,inhibition,Staphylococcus aureus [1],84.2%
same,inhibition,Staphylococcus aureus [2],50.1%
same,MIC,Staphylococcus aureus [3],> 50 µg/mL and > 519 µM
same,fold change (FC),Staphylococcus aureus [4],8
same,MIC,Staphylococcus aureus [5],> 50 µg/mL
same,MPC,Staphylococcus aureus [19],0.39 µg/mL
same,MPC,Staphylococcus aureus [20],0.78 µg/mL
same,fold change (FC),Staphylococcus aureus [21],4
CCCOc1ccc(-c2cc(OCCN3CCCCC3)c3cc(-c4ccccc4)ccc3n2)cc1,inhibition,Staphylococcus aureus [1],80.6%
same,inhibition,Staphylococcus aureus [2],41.9%
CCCOc1ccc(-c2cc(OCCN3CCCCCC3)c3cc(SC)ccc3n2)cc1,"viability at 24 h, 3.13 ug/ml",[7],68.8%
same,"viability at 24 h, 12.5 ug/ml",[8],19.9%
same,inhibition,Staphylococcus aureus [1],81.2%
same,inhibition,Staphylococcus aureus [2],81.1%
same,MIC,Staphylococcus aureus [3],> 50 µg/mL and 69.5 µM
same,fold change (FC),Staphylococcus aureus [4],8
same,MIC,Staphylococcus aureus [5],> 50 µg/mL
same,MIC,Staphylococcus aureus [9],> 50 µg/mL
same,MIC,Staphylococcus aureus [10],> 50 µg/mL
same,MPC,Staphylococcus aureus [6],1.56 µg/mL
same,fold change (FC),Staphylococcus aureus [11],4
same,"viability at 24 h, 12.5 ug/ml",[12],100%
same,"viability at 24 h, 3.13 ug/ml",[13],100%
same,CC50 at 24 h,[14],> 3.13 µg/mL
same,MBEC,Staphylococcus aureus [15],1.25 µg/mL
same,MBEC,Staphylococcus aureus [16],0.07 µg/mL
same,fold change (FC),Staphylococcus aureus [17],512
same,fold change (FC),Staphylococcus aureus [18],286

# Source: ChEMBL document CHEMBL5108024, “New C-6 functionalized quinoline NorA inhibitors strongly synergize with ciprofloxacin against planktonic and biofilm growing resistant Staphylococcus aureus strains” (Eur J Med Chem, 2022)
